From patent US20150139901A1, “Radioactive Rhodium Complexes, Preparation Methods and Uses Thereof” (Institut National de la Sante et de la Recherche Medicale …, priority 2012, published 2015) come the findings set out here.

A short description of the data set: Stability test in human serum (15 h incubation, TLC control of supernatant). The class given is in vitro ADME. Conditions: controlled by TLC. On the procedure:
The compound of Example 4 (7.5-10.5 MBq) was prepared according to the previously described procedure. The resulting organic solution was evaporated until the final volume was about 50 μL. The complex was purified by silica gel chromatography using DCM/MeOH (99/1) as mobile phase. Activity was counted for each 500 μL aliquots and fractions of interest were concentrated under nitrogen flux. One ml of human serum was then added. The solution was gently stirred and divided into two aliquots incubated 15 h. respectively at 4° C. and 37° C. Then, serum proteins were precipitated by adding 750 μl of organic solvents mixture (ACN/DCM 100/1). Supernatant was separated by centrifugation at 4000 rpm and controlled by TLC.

Consider “(^211At)(1-benzyl-3-(4-nitrophenyl)imidazolidene)(cyclooctadiene) rhodium(+I) [Example 4]”, for which the “degradation in human serum” value reads like this: (incubated 15 h, result sentence prints 30° C. (method: 37° C.)) “No degradation”; (incubated 15 h at 4° C.) “No degradation”.
